# Experimental data reported in patent US7244586B2, “DNA molecules encoding ligand-gated ion channels from Drosophila melanogaster” (Merck & Co., Inc., priority 2000, dated 2007).
# System: DmLGIC AC15
# Conditions: AC15 clone expressed in Xenopus oocyte
# Experimental: Full length cDNA clones corresponding to the selected RT-PCR sequences were used as template for synthesis of in vitro transcribed RNA (Ambion Inc.). The capped cRNA transcripts are synthesized using appropriate oligonucleotide primers and the mMESSAGE mMACHINE in vitro RNA transcription kit from Ambion. Xenopus laevis oocytes were prepared and injected using standard methods as described (Arena et al., 1991, Mol. Pharmacol. 40: 368–374; Arena et al, 1992, Mol. Brain Res. 15: 339–348). Adult female Xenopus laevis were anesthetized with 0.17% tricaine methanesulfonate and the ovaries were surgically removed and placed in a dish consisting of (mM): NaCl 82.5, KCl 2, MgCl2 1, CaCl2 1.8, HEPES 5, adjusted to pH 7.5 with NaOH (OR-2). Ovarian lobes were broken open, rinsed several times, and gently shaken in OR-2 containing 0.2% collagenase (Sigma, Type 1A) for 2–5 hours. When approximately 50% of the follicular layers were removed, Stage V and VI oocytes were selected and placed in media consisting of (mM): NaCl 86, KCl 2, MgCl2 1, CaCl2 1.8, HEPES 5, Na pyruvate 2.5, theophylline 0.5, gentamicin 0.1 adjusted to pH 7.5 with NaOH (ND-96) for 24–48 hours before injection. For most experiments, oocytes were injected with 10 ng of cRNA in 50 nl of RNase free water. Control oocytes were injected with 50 nl of water. […]
compound,measurement,value
NCCc1c[nH]cn1 [histamine],response of functional single channel protein to addition of histamine,responds to the addition of histamine
